# In patent EP1285918A1, “C7 Ester substituted taxanes as antitumor agents” (Florida State University Research Foundation, Inc., priority 2001, dated 2003):
# Where two headings read alike, the source gives them in different places.
# Legend:
# [1] = tested on: MX-1 Human Breast Carcinoma Xenograft; assay: In vivo evaluation of oral administration of antitumor compounds against MX-1 human breast carcinoma xenograft (Example 25)
# From the text: This study investigated the efficacy of various antitumor compounds when administered orally against the MX-1 human breast carcinoma xenograft.
# (§1) The study was terminated on Day 63.
# blood cell populations = assay: Effect of oral treatment on blood cell populations, body weight and tumor weight in MX-1 bearing mice (Example 25, Table 23); assay type: in vivo, nu/nu mice; details: 107 mg/kg single oral bolus
# Experimental: as §1
# In addition to survival and tumor regression responses, the effect of treatment on blood cell populations was assessed. The major effect of these antitumor compounds on blood cell populations was a marked reduction in the neutrophil cell number. As well, monocyte depletion correlated fairly well with neutrophil reduction for each antitumor compound. […] There was a correlation between antitumor activity and reduced neutrophil count. In general, toxicity (as determined by neutrophil depletion) and weight loss correlated with efficacy. Importantly, the toxicities observed with the very efficacious antitumor compounds were manageable and reversible; neutrophil count and body weight rebounded from their low points in just a few days. Table 23 summarizes the weight reduction, neutrophil and monocyte measurements on Day 4, with tumor weight reduction calculated at Day 18: Table 23
# [2] = tested on: SKMES Human Lung Carcinoma Xenograft
# Experimental: The antitumor compound was prepared in the following vehicle: 10% ethanol and 90% Liposyn III.
# Female Nu/Nu mice (6-8 weeks of age; implanted with 1 mm^3 SKMES lung carcinoma fragments in the flank) were sorted into treatment groups of six mice each. SKMES size ranges and group mean SKMES size ranges were 126-448 mg and 238-241 mg, respectively. […] Treatments were administered as a single i.v. bolus on Day 1, and the study was terminated on Day 60.
# The mean days of survival is the number of days after which a SKMES neoplasm reached a size of 2.0 g and the animal was euthanized. A complete response is obtained if the tumor is not palpable at the end of the study. A partial response is obtained if the tumor shrinks to a size smaller than its size on Day 1 of the study.
# [3] = 107 mg/kg single oral bolus, 6 mice/group, study end Day 63
# [4] = 15 mg/kg single i.v. bolus Day 1, 6 mice/group, study end Day 60
# [5] = 62 mg/kg single i.v. bolus Day 1, 6 mice/group, study end Day 60
# [6] = 108 mg/kg single i.v. bolus Day 1, 6 mice/group, study end Day 60
# [7] = 154 mg/kg single i.v. bolus Day 1, 6 mice/group, study end Day 60
smiles,measurement,setting,value
CCC(=O)O[C@H]1C[C@H]2OC[C@@]2(OC(C)=O)[C@H]2[C@H](OC(=O)c3ccccc3)[C@]3(O)C[C@H](OC(=O)[C@H](O)[C@H](C=C(C)C)NC(=O)OC(C)(C)C)C(C)=C([C@@H](O)C(=O)[C@]12C)C3(C)C [Compound 1351],Maximum Weight Loss (Day),"[1]; 107 mg/kg single oral bolus, 6 mice/group, on Day 5",-9.1% (5)
same,Partial Response,[1]; [3],0
same,Stable Disease,[1]; [3],1
same,Toxic Deaths,[1]; [3],0
same,Mean Day of Survival (n),"[1]; 107 mg/kg single oral bolus, 6 mice/group, study end Day 63, days until tumor reached 1.5 g",46.2 ± 5.1 (5) days
same,survival compared to vehicle control mice,"[1]; MX-1, single oral bolus, doses of Table 22, Day 63",significant survival extensions
same,Complete Response,"[1]; po, 107 mg/kg, 1512 h",0
same,Monocytes (K/µL),blood cell populations; Day 4,0.088 K/µL
same,Neutrophils (K/µL),blood cell populations; Day 4,0.408 K/µL
same,% Reduction,"blood cell populations; reduction of monocytes, Day 4",8.3%
same,% Reduction,"blood cell populations; reduction of neutrophils, Day 4",55.2%
same,% Reduction,blood cell populations; reduction of tumor weight at Day 18,85.9%
same,Weight,blood cell populations; tumor weight at Day 18,122.1 mg
CCC(=O)O[C@H]1C[C@H]2OC[C@@]2(OC(C)=O)[C@H]2[C@H](OC(=O)c3ccccc3)[C@]3(O)C[C@H](OC(=O)[C@H](O)[C@@H](NC(=O)OC(C)(C)C)c4cccs4)C(C)=C([C@@H](O)C(=O)[C@]12C)C3(C)C [Compound 1418],Survivors,[2]; [4],0
same,Toxic Deaths,[2]; [4],0
same,Survivors,[2]; [5],0
same,Toxic Deaths,[2]; [5],0
same,MDS (n),"[2]; 62 mg/kg single i.v. bolus Day 1, 6 mice/group, study end Day 60, days until tumor reached 2.0 g",35.3 ± 3.3 (6) days
same,Survivors,[2]; [6],3
same,Toxic Deaths,[2]; [6],0
same,Survivors,[2]; [7],5
same,Toxic Deaths,[2]; [7],0
same,MDS,"[2]; SKMES, 1418 single i.v. bolus 62 mg/kg (Group 4), 2.0 g cut-off",35.3 days
same,% Total Response,"[2]; iv, 15 mg/kg",0%
same,Complete Responses,"[2]; iv, 15 mg/kg",0
same,MDS (n),"[2]; iv, 15 mg/kg",21.2 ± 2.9 (6) days
same,Partial Responses,"[2]; iv, 15 mg/kg",0
same,% Total Response,"[2]; iv, 62 mg/kg",0%
same,Complete Responses,"[2]; iv, 62 mg/kg",0
same,Partial Responses,"[2]; iv, 62 mg/kg",0
same,% Total Response,"[2]; iv, 108 mg/kg",50.0%
same,Complete Responses,"[2]; iv, 108 mg/kg",1
same,MDS (n),"[2]; iv, 108 mg/kg",40.6 ± 2.9 (3) days
same,Partial Responses,"[2]; iv, 108 mg/kg",2
same,% Total Response,"[2]; iv, 154 mg/kg",83.3%
same,Complete Responses,"[2]; iv, 154 mg/kg",5
same,Partial Responses,"[2]; iv, 154 mg/kg",0
